The target of assay [1] is T1, Kinesin-like protein KIF11 (Homo sapiens) (UniProt P52732).
T1 sequence (whole entry): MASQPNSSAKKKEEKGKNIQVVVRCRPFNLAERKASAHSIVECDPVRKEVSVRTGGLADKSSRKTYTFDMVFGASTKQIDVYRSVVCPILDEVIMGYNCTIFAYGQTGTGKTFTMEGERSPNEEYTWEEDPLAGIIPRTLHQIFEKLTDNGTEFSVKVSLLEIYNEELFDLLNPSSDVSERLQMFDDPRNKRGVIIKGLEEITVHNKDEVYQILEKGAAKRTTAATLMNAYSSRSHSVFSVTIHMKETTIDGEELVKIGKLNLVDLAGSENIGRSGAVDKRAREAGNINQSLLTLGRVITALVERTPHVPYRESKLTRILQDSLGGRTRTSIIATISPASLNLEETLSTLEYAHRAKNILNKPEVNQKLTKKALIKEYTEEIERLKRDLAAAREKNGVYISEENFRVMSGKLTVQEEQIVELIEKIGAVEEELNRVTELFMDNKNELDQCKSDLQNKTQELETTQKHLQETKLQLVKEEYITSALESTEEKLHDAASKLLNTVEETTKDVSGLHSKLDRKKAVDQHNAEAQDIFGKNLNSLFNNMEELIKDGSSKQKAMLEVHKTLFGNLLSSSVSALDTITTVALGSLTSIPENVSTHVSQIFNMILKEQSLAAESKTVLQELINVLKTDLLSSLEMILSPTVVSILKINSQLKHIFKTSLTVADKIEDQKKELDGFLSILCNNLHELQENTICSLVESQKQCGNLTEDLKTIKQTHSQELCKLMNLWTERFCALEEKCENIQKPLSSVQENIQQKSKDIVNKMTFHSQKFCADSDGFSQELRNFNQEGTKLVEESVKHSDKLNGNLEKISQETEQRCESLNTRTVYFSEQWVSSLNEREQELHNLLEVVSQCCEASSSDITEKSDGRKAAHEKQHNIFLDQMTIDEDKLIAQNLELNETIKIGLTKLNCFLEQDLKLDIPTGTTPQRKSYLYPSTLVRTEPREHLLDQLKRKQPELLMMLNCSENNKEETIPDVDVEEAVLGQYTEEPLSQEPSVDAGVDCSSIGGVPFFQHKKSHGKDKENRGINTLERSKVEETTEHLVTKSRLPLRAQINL
Description: Competitive inhibition of human Eg5 assessed as effect on ATPase activity using varying ATP levels in absence of microtubule by Lineweaver-Burke plot.

The subject of assay [2] is T2, Kinesin-like protein KIF11 (Homo sapiens), P52732 [D130V].
T2 sequence (whole entry): T1 sequence (whole entry) with D130V
Kind of assay: Uncompetitive inhibition of human KSP D130V mutant with respect to microtubule using varying ATP levels in presence of saturating levels of microtubule by Lineweaver-Burke plot.

Assay [3] deals with T1, Kinesin-like protein KIF11 (Homo sapiens). Kind of assay: Competitive inhibition of human wild type Eg5 with respect to ATP using varying ATP levels in presence of saturating levels of microtubule by Lineweaver-Burke plot.

Positions count from the first letter of the chain named. Activity calls are given as the source filed them. No cut-off for these calls is given here.

`O=C1CCc2cc(-c3ccc(C(F)(F)F)cc3)ccc2N1`: in assay [1], the inhibition result is “inactive”. In addition, the inhibition result in assay [2] and in assay [3] was “Active” in each case.

`NC(=O)Nc1ccc(-c2ccc(C(F)(F)F)cc2)cc1F`: in assay [1], the inhibition result is “inactive”. Further, the inhibition entry in assay [2] and in assay [3] was “Active” in each case.
